Measurements as given in patent US9187497B2, “Substituted pyrido[3,2-e]pyrrolo[1,2-a]pyrazines as inhibitors of poly(ADP-ribose)polymerase (PARP)” (Takeda Phamaceutical Company Limited, priority 2009, dated 2015).

The molecules below were run on Jurkat cell line (assay: PARP cellular chemopotentiation assay (MTS cell viability with and without TMZ)). Details: ratio of EC50 for inhibition of cell viability without and with 100 μM TMZ; Jurkat cells, 96 hours of treatment.
Format: cell-based
Protocol: Potentiation Factor (PF50) Determination from PARP Cellular Chemopotentiation Assay
Jurkat cell line was maintained according to the supplier (American Type Culture Collection (Rockville, Md.)). Cells were seeded in 96-well tissue culture microplates at 10,000 cells per well and cultured for 24 hours prior to addition of compounds, TMZ (Temozolomide) or DMSO (dimethylsulfoxide) vehicle. After 96 hours of treatment, the conversion of MTS ([3-(4,5-dimethylthiazol-2-yl)-5-(3-carboxymethoxyphenyl)-2-(4-sulfophenyl)-2H-tetrazolium, inner salt], Promega, Madison, Wis.) by metabolically active cells was determined through measuring the OD490 nm with a Spectramax microplate reader (Molecular Devices, San Diego, Calif.). To generate concentration-response curves, cells were treated in duplicate with a range of serial compound dilutions (final DMSO concentration was 0.5%) in the absence or presence of 100 μM TMZ chemoreagent. The percentage of viable cells per well was calculated by correction for background and normalizing against DMSO-treated cells. EC50 values for inhibition of cell viability were calculated using XLfit4 MicroSoft Excel curve-fitting software. Chemopotentiation factor PF50 was calculated as the ratio of EC50 values of cells co-treated without and with TMZ, respectively.

Compound	PF50
O=C1Nc2cc(CN3CC=C(c4ccc(Cl)cc4)CC3)cnc2N2CCSC[C@@H]12 [Compound 91, (R)-3-((4-(4-chlorophenyl)-5,6-dihydropyridin-1(2H)-yl)methyl)-6a,7,9,10-tetrahydropyrido[3,2-e][1,4]thiazino[4,3-a]pyrazin-6(5H)-one]	>2000
O=C1Nc2cc(CN3CCN(c4ccc(Cl)cc4)CC3)cnc2N2CCOCC12 (stereo not shown) [Compound 93, 3-((4-(4-chlorophenyl)piperazin-1-yl)methyl)-6a,7,9,10-tetrahydro-[1,4]oxazino[4,3-a]pyrido[3,2-e]pyrazin-6(5H)-one]	≧0
CN1CCN2c3ncc(CN4CCN(c5ccc(Cl)cc5)CC4)cc3NC(=O)C2C1 (stereo not shown) [Compound 97, 7-[4-(4-Chloro-phenyl)-piperazin-1-ylmethyl]-2-methyl-1,3,4,10a-tetrahydro-2H,9H-2,4a,5,9-tetraaza-phenanthren-10-one]	≧0
CNC(=O)c1ccc(N2CCN(Cc3cnc4c(c3)NC(=O)[C@@H]3CSCCN43)CC2)cc1 [Compound 98, (R)—N-methyl-4-(4-((6-oxo-5,6,6a,7,9,10-hexahydropyrido[3,2-e][1,4]thiazino[4,3-a]pyrazin-3-yl)methyl)piperazin-1-yl)benzamide]	>5000
O=C(NC1CC1)c1ccc(N2CCN(Cc3cnc4c(c3)NC(=O)[C@@H]3CSCCN43)CC2)cc1 [Compound 99, (R)—N-cyclopropyl-4-(4-((6-oxo-5,6,6a,7,9,10-hexahydropyrido[3,2-e][1,4]thiazino[4,3-a]pyrazin-3-yl)methyl)piperazin-1-yl)benzamide]	>5000
N#Cc1ccc(N2CCN(Cc3cnc4c(c3)NC(=O)C3COCCN43)CC2)nc1 (stereo not shown) [Compound 100, 6-(4-((6-oxo-5,6,6a,7,9,10-hexahydro-[1,4]oxazino[4,3-a]pyrido[3,2-e]pyrazin-3-yl)methyl)piperazin-1-yl)nicotinonitrile]	>10

These molecules were tested against T1, PARP (Homo sapiens, UniProt P09874) (assay: PARP ELISA colorimetric assay of inhibition of PARP catalytic activity (IC50)). Details: pIC50=-log(IC50), IC50 in molar concentration; ELISA-based PARP kit, 10 minutes of catalysis.
T1 construct: purchased Trevigen 4684-096-01 (enzyme); kit 4684-096-K HT
Format: biochemical
Protocol: Inhibition Constant (IC50) from PARP ELISA
Inhibition of PARP catalytic activity was determined by use of an ELISA-based colorimetric PARP/Apoptosis Assay kit (part number 4684-096-K HT, Trevigen). To each histone coated well in the 96-well plate supplied by the manufacturer (part number 4677-096-P) is added 39 μl of PARP buffer (part number 4671-096-02) and 1 μl of test compound dissolved in DMSO (diluted serially 3-fold 11 times). After mixing, 5 μl of 0.1 nM PARP (part number 4684-096-01) is added and the solution allowed to stand at ambient temperature for 10 minutes. PARP catalysis is initiated with the addition of 5 μl of 100 μM β-nicotinamide adenine dinucleotide (NAD+) (part number 4684-096-02) with activated DNA (part number 4671-096-06). After 10 minutes of catalysis the reaction is quenched by solvent aspiration followed by irrigation of the assay wells 4 times with phosphate buffered saline (PBS) containing 0.1% t-Octylphenoxypolyethoxyethanol (Triton® X-100). Mouse Anti-poly ADP ribose (PAR) monoclonal antibody, goat antimouse immunoglobulin G (IgG)-horse radish peroxidase (HRP) conjugate and HRP substrate are added according to the manufacture's specifications to generate a colorimetric signal proportional to PARP catalytic activity. An IC50 for the test compound is calculated from the equation Absorbance=(Amax−background)/(1+([cmpd]/IC50)^n)+background fit to the 12 point test compound concentration gradient via nonlinear least squares.

T1 sequence (P09874 whole entry): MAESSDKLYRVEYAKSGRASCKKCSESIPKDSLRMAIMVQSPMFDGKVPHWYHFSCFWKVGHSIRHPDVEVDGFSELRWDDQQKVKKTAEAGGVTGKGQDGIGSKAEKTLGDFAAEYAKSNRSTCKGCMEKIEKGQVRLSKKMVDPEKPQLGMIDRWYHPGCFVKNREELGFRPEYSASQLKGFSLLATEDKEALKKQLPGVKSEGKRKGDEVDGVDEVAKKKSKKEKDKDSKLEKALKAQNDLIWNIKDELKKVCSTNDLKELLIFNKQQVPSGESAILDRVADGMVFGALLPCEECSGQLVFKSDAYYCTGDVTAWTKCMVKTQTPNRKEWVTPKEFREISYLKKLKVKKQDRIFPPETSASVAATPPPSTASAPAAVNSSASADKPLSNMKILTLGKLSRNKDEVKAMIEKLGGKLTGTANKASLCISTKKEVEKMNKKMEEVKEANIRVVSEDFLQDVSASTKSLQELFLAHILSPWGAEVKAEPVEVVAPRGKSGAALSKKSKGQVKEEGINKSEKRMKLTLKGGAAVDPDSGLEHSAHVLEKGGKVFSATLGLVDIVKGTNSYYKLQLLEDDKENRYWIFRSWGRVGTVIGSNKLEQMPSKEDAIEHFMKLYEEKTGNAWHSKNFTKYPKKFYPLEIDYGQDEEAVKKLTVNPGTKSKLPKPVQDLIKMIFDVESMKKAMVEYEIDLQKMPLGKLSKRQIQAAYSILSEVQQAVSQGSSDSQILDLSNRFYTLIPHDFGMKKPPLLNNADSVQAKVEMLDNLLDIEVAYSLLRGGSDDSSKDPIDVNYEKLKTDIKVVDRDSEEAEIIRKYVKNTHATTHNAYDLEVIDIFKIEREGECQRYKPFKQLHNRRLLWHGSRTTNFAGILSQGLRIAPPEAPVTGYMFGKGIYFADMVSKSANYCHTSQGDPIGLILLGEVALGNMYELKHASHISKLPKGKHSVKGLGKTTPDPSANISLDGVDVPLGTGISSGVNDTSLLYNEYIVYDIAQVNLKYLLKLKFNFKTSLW

Compound	IC50 [nM]
CC(C)N1CC(=O)Nc2cc(CN3CCC(c4ccc(Cl)cc4)CC3)cnc21 [Compound 96, 7-((4-(4-chlorophenyl)piperidin-1-yl)methyl)-4-isopropyl-3,4-dihydropyrido[2,3-b]pyrazin-2(1H)-one]	≥ 50.1
CCOC(=O)c1ccc(N2CCN(Cc3cnc4c(c3)NC(=O)[C@@H]3CCCN43)CC2)nc1 [Compound 121, (S)-ethyl 6-(4-((6-oxo-5,6,6a,7,8,9-hexahydropyrido[3,2-e]pyrrolo[1,2-a]pyrazin-3-yl)methyl)piperazin-1-yl)nicotinate]	15.8 to 39.8
COc1cc(-c2ccc(N3CCN(Cc4cnc5c(c4)NC(=O)[C@@H]4CCCCN54)CC3)cc2)ccn1 [Compound 144, (S)-3-((4-(4-(2-methoxypyridin-4-yl)phenyl)piperazin-1-yl)methyl)-7,8,9,10-tetrahydro-5H-dipyrido[1,2-a:3′,2′-e]pyrazin-6(6aH)-one]	≥ 50.1
Nc1cccc(-c2ccc(N3CCN(Cc4cnc5c(c4)NC(=O)[C@@H]4CCCCN54)CC3)cc2)n1 [Compound 145, (S)-3-((4-(4-(6-aminopyridin-2-yl)phenyl)piperazin-1-yl)methyl)-7,8,9,10-tetrahydro-5H-dipyrido[1,2-a:3′,2′-e]pyrazin-6(6aH)-one]	≥ 50.1
O=C1Nc2cc(CN3CCN(c4ccc(-c5ccsc5)cc4)CC3)cnc2N2CCCC[C@@H]12 [Compound 146, (S)-3-((4-(4-(thiophen-3-yl)phenyl)piperazin-1-yl)methyl)-7,8,9,10-tetrahydro-5H-dipyrido[1,2-a:3′,2′-e]pyrazin-6(6aH)-one]	15.8 to 39.8
O=C1Nc2cc(CN3CCN(c4ccc(-c5cccs5)cc4)CC3)cnc2N2CCCC[C@@H]12 [Compound 147, (S)-3-((4-(4-(thiophen-2-yl)phenyl)piperazin-1-yl)methyl)-7,8,9,10-tetrahydro-5H-dipyrido[1,2-a:3′,2′-e]pyrazin-6(6aH)-one]	≥ 50.1
O=C1Nc2cc(CN3CCN(c4ccc(-c5ccncc5)cc4)CC3)cnc2N2CCCC[C@@H]12 [Compound 148, (S)-3-((4-(4-(pyridin-4-yl)phenyl)piperazin-1-yl)methyl)-7,8,9,10-tetrahydro-5H-dipyrido[1,2-a:3′,2′-e]pyrazin-6(6aH)-one]	15.8 to 39.8
O=C1Nc2cc(CN3CCN(c4ccc(-c5ccccc5)cc4)CC3)cnc2N2CCCC[C@@H]12 [Compound 149, (S)-3-((4-(biphenyl-4-yl)piperazin-1-yl)methyl)-7,8,9,10-tetrahydro-5H-dipyrido[1,2-a:3′,2′-e]pyrazin-6(6aH)-one]	≥ 50.1
COc1ccc(-c2ccc(N3CCN(Cc4cnc5c(c4)NC(=O)[C@@H]4CCCCN54)CC3)cc2)cn1 [Compound 150, (S)-3-((4-(4-(6-methoxypyridin-3-yl)phenyl)piperazin-1-yl)methyl)-7,8,9,10-tetrahydro-5H-dipyrido[1,2-a:3′,2′-e]pyrazin-6(6aH)-one]	≥ 50.1
O=C1Nc2cc(CN3CCN(c4ccc(-c5cncnc5)cc4)CC3)cnc2N2CCCC[C@@H]12 [Compound 151, (S)-3-((4-(4-(pyrimidin-5-yl)phenyl)piperazin-1-yl)methyl)-7,8,9,10-tetrahydro-5H-dipyrido[1,2-a:3′,2′-e]pyrazin-6(6aH)-one]	≥ 50.1
COc1ncc(-c2ccc(N3CCN(Cc4cnc5c(c4)NC(=O)[C@@H]4CCCCN54)CC3)cc2)cn1 [Compound 152, (S)-3-((4-(4-(2-methoxypyrimidin-5-yl)phenyl)piperazin-1-yl)methyl)-7,8,9,10-tetrahydro-5H-dipyrido[1,2-a:3′,2′-e]pyrazin-6(6aH)-one]	15.8 to 39.8
COc1cnccc1-c1ccc(N2CCN(Cc3cnc4c(c3)NC(=O)[C@@H]3CCCCN43)CC2)cc1 [Compound 153, (S)-3-((4-(4-(3-methoxypyridin-4-yl)phenyl)piperazin-1-yl)methyl)-7,8,9,10-tetrahydro-5H-dipyrido[1,2-a:3′,2′-e]pyrazin-6(6aH)-one]	≥ 50.1
Cc1ccccc1-c1ccc(N2CCN(Cc3cnc4c(c3)NC(=O)[C@@H]3CCCCN43)CC2)cc1 [Compound 154, (S)-3-((4-(2′-methylbiphenyl-4-yl)piperazin-1-yl)methyl)-7,8,9,10-tetrahydro-5H-dipyrido[1,2-a:3′,2′-e]pyrazin-6(6aH)-one]	≥ 50.1
Cc1cnccc1-c1ccc(N2CCN(Cc3cnc4c(c3)NC(=O)[C@@H]3CCCCN43)CC2)cc1 [Compound 155, (S)-3-((4-(4-(3-methylpyridin-4-yl)phenyl)piperazin-1-yl)methyl)-7,8,9,10-tetrahydro-5H-dipyrido[1,2-a:3′,2′-e]pyrazin-6(6aH)-one]	≥ 50.1
COc1cccc(-c2ccc(N3CCN(Cc4cnc5c(c4)NC(=O)[C@@H]4CCCCN54)CC3)cc2)n1 [Compound 156, (S)-3-((4-(4-(6-methoxypyridin-2-yl)phenyl)piperazin-1-yl)methyl)-7,8,9,10-tetrahydro-5H-dipyrido[1,2-a:3′,2′-e]pyrazin-6(6aH)-one]	≥ 50.1
O=C1Nc2cc(CN3CCN(c4ccc(-c5ccccn5)cc4)CC3)cnc2N2CCCC[C@@H]12 [Compound 157, (S)-3-((4-(4-(pyridin-2-yl)phenyl)piperazin-1-yl)methyl)-7,8,9,10-tetrahydro-5H-dipyrido[1,2-a:3′,2′-e]pyrazin-6(6aH)-one]	≥ 50.1
O=C1Nc2cc(CN3CCN(c4ccc(-c5cccnc5)cc4)CC3)cnc2N2CCCC[C@@H]12 [Compound 158, (S)-3-((4-(4-(pyridin-3-yl)phenyl)piperazin-1-yl)methyl)-7,8,9,10-tetrahydro-5H-dipyrido[1,2-a:3′,2′-e]pyrazin-6(6aH)-one]	≥ 50.1
Cc1ccc(-c2ccc(N3CCN(Cc4cnc5c(c4)NC(=O)[C@@H]4CCCCN54)CC3)cc2)s1 [Compound 159, (S)-3-((4-(4-(5-methylthiophen-2-yl)phenyl)piperazin-1-yl)methyl)-7,8,9,10-tetrahydro-5H-dipyrido[1,2-a:3′,2′-e]pyrazin-6(6aH)-one]	≥ 50.1
O=C1Nc2cc(CN3CCN(c4ccc(-c5ccccc5CO)cc4)CC3)cnc2N2CCCC[C@@H]12 [Compound 160, (S)-3-((4-(2′-(hydroxymethyl)biphenyl-4-yl)piperazin-1-yl)methyl)-7,8,9,10-tetrahydro-5H-dipyrido[1,2-a:3′,2′-e]pyrazin-6(6aH)-one]	≥ 50.1
